Reference: publication PMC3223204, “Implantation Serine Proteinase 1 Exhibits Mixed Substrate Specificity that Silences Signaling via Proteinase-Activated Receptors” (PLoS ONE, 2011)
Entries after “also recorded” stand apart in the source; their conditions may differ. Where a name gives a salt, the structure may show the parent alone. Read-outs that look alike come from different tables or passages of the source. One block for each molecule: values may come before it. Non-standard residues stand in square brackets, D forms with d. Residues, ends and D or L forms follow the SMILES beside them. *: point of attachment. pNA = O=[N+]([O-])c1ccc(N*)cc1; Tos = Cc1ccc(S(=O)(=O)*)cc1; Bz = O=C(c1ccccc1)*

Key:
recombinant ISP1 [1] = target: T1, recombinant ISP1 (Mus musculus, UniProt Q924N9); assay: Inhibition of recombinant ISP1 by general serine proteinase inhibitors; type: biochemical; settings: for Effect on enzyme activity of rISP1: 2 mM BAPNA as well as 150 µM VPR-AMC as substrate, result in words; for Ki: read-out: Ki (Apparent Ki)
T1 construct: Myc (C); His6 (C); made in house; host or cells: Pichia pastoris SMD1168
T1 sequence (Q924N9 31-274 limits assumed): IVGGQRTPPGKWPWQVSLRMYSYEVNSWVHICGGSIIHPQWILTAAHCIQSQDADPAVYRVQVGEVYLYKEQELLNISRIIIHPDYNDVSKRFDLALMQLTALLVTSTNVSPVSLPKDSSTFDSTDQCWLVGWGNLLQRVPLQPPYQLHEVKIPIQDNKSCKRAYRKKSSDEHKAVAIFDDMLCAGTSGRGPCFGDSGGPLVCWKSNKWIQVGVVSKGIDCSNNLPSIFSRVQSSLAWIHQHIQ
Experimental: (§1) p-Nitroanilide substrates, Valine-Proline-Arginine-Amino methyl coumarin (VPR-AMC), Benzamidine Hydrochloride, TLCK (N -p-tosyl-L-lysine chloromethyl ketone), APMSF (4-Amidino-Phenyl)-Methane-Sulfonyl Fluoride), Trypsin Soybean Inhibitor (TSI) and Gabexate mesylate were obtained from Sigma Aldrich and Co. Oakville, ON Canada. Chromogenic assays were performed using the p-Nitroanilide/methyl-naphthylamide conjugated peptidic substrates. The reaction conditions used were: 25 mM Tris.Cl (pH 8.0) buffer with 10 mM EDTA reaction buffer, in a total reaction volume of 0.5 mL including varying concentrations of the substrates and enzyme sample. The reactions were done at room temperature in a glass cuvette (1 cm path length), and scanned at wavelength of 405 nm (in case of p-nitroanilide conjugated substrates) and 540 nm (in case of methyl-naphthylamide substrates) using a spectrophotometer. 1 Unit of enzyme is defined as the amount of enzyme capable of the breakdown of 1 micromole of substrate/min.
(§2) The catalytic activity of recombinant ISP1 with various small chromogenic peptide substrates was characterized by measuring enzyme cleavage at differing substrate concentrations and plotting enzyme activity [V] vs. substrate concentration [S] and calculating Michaelis Menten constant (Km). The Km was calculated using the Michaelis Menten equation (Km = [S] at ½ Vmax). Sigma plot was used for plotting the values obtained and determining Michaelis Menten Constant (Km). Inhibition of proteolytic activity of recombinant ISP1 was determined by measuring enzyme activity in the presence of varying concentrations of serine proteinase inhibitors. 2 mM BAPNA and 150 uM VPR-AMC were employed for enzyme assays in these inhibition studies. Sigma plot was used for plotting the values obtained in order to determine dissociation constant (Ki). Enzyme concentration [E] used for these experiments was 6.5 uM. This value was employed for calculating turnover number (kcat) and enzyme efficiency represented by kcat/Km ratio.

recombinant ISP1 [2] = target: T1, recombinant ISP1; assay: Chromogenic substrate kinetics of recombinant ISP1; type: biochemical; settings: for Hydrolysis of chromogenic substrate by rISP1: result in words; for Michaelis Menton Constant (Km) / Turnover No. (kcat) / Km: substrate of recombinant ISP1, 25 mM Tris.Cl pH 8.0, room temperature; for Turnover No. (kcat): [E] 6.5 uM; for Km: read-out: Michaelis Menton Constant (Km)
Experimental: as §1, §2

Molecule: O=S(=O)(F)Cc1ccccc1 [PMSF]
Effect on enzyme activity of rISP1 (recombinant ISP1 [1]): inhibited the enzyme activity; also recorded: strong inhibitory activity | Ki (recombinant ISP1 [1]; substrate VPR-AMC (0.15 mM)): 340 µM

Molecule: CC(C)C[C@H](NC(=O)[C@H](N)C(C)C)C(=O)N[C@@H](CCCCN)C(=O)Nc1ccc([N+](=O)[O-])cc1.Cl [Valine-Leucine-Lysinep-nitroanilide, H-D-valine-leucine-lysine p-nitroanilide hydrochloride] (H-[dV]-Leu-Lys-pNA)
Hydrolysis of chromogenic substrate by rISP1 (recombinant ISP1 [2]): no enzyme activity | Michaelis Menton Constant (Km) (recombinant ISP1 [2]): Nil | Turnover No. (kcat) (recombinant ISP1 [2]): Nil

Effect on enzyme activity of rISP1 (recombinant ISP1 [1]): no noticeable effect | Ki (Apparent Ki) (recombinant ISP1 [1]; substrate BAPNA (2 mM)): No inhibition
Molecule: N=C(N)c1ccccc1 [Benzamidine Hydrochloride]

Molecule: CCOC(=O)c1ccc(OC(=O)CCCCCN=C(N)N)cc1.CS(=O)(=O)O [Gabexate mesylate]
Effect on enzyme activity of rISP1 (recombinant ISP1 [1]): inhibited the enzyme activity | Effect on enzyme activity of rISP1 (recombinant ISP1 [1]; listed as gabexate mesylate): strong inhibitory activity | Ki (recombinant ISP1 [1]; substrate BAPNA (2 mM)): 1700 µM

Molecule: Cc1ccc(S(=O)(=O)N[C@@H](CCCCN)C(=O)CCl)cc1 [TLCK, N -p-tosyl-L-lysine chloromethyl ketone]
Effect on enzyme activity of rISP1 (recombinant ISP1 [1]): inhibited the enzyme activity; also recorded: strong inhibitory activity | Ki (recombinant ISP1 [1]; substrate VPR-AMC (0.15 mM)): 30 µM

Molecule: COc1cc(NC(=O)C(CCCNC(=N)N)NC(=O)C(CCCNC(=N)N)NC(=O)C(CCCNC(=N)N)NC(=O)OCc2ccccc2)cc2ccccc12 (stereo not shown) [N-CBZ-arginine-arginine-arginine-4-methoxy naphthylamide]
Hydrolysis of chromogenic substrate by rISP1 (recombinant ISP1 [2]): hydrolyzed | Turnover No. (kcat) (recombinant ISP1 [2]): 0.7 s⁻¹ | Km (recombinant ISP1 [2]; listed as RRRmN): ~100 µM | Km (recombinant ISP1 [2]): 99 µM

Molecule: CC(C)[C@H](NC(=O)[C@H](Cc1ccccc1)NC(=O)c1ccccc1)C(=O)N[C@@H](CCCNC(=N)N)C(=O)Nc1ccc([N+](=O)[O-])cc1.Cl [N-Benzoyl-phenylalanine-valine-arginine p-nitroanilide hydrochloride] (Bz-Phe-Val-Arg-pNA)
Hydrolysis of chromogenic substrate by rISP1 (recombinant ISP1 [2]): hydrolyzed | Turnover No. (kcat) (recombinant ISP1 [2]): 0.14 s⁻¹ | Km (recombinant ISP1 [2]): 360 µM

Ki (recombinant ISP1 [1]; substrate BAPNA (2 mM)): 2 µM
Molecule: α-1-Antitrypsin: general serine proteinase inhibitor
Effect on enzyme activity of rISP1 (recombinant ISP1 [1]): inhibited the enzyme activity | Effect on enzyme activity of rISP1 (recombinant ISP1 [1]; listed as α-1 antitrypsin): strong inhibitory activity

Molecule: CC(C)C[C@H](NC(=O)[C@@H](NC(=O)N[C@@H](Cc1ccccc1)C(=O)O)[C@@H]1CCN=C(N)N1)C(=O)N[C@H](C=O)Cc1ccccc1 [Chymostatin]
Effect on enzyme activity of rISP1 (recombinant ISP1 [1]): inhibited the enzyme activity | Effect on enzyme activity of rISP1 (recombinant ISP1 [1]; listed as chymostatin): strong inhibitory activity | Ki (recombinant ISP1 [1]; substrate BAPNA (2 mM)): 220 µM

Ki (Apparent Ki) (recombinant ISP1 [1]; substrate BAPNA (2 mM)): No inhibition
Molecule: Aprotinin
Effect on enzyme activity of rISP1 (recombinant ISP1 [1]): no noticeable effect

Hydrolysis of chromogenic substrate by rISP1 (recombinant ISP1 [2]): no reaction | Michaelis Menton Constant (Km) (recombinant ISP1 [2]): Nil | Turnover No. (kcat) (recombinant ISP1 [2]): Nil
Molecule: C[C@H](NC(=O)CCC(=O)O)C(=O)N[C@@H](C)C(=O)N[C@@H](C)C(=O)Nc1ccc([N+](=O)[O-])cc1 [N-Succinyl-alanine-alanine-alanine p-nitroanilide]

Hydrolysis of chromogenic substrate by rISP1 (recombinant ISP1 [2]): hydrolyzed | Turnover No. (kcat) (recombinant ISP1 [2]): 2.2 s⁻¹ | Km (recombinant ISP1 [2]): 610 µM
Molecule: Cl.N=C(N)NCCC[C@H](NC(=O)c1ccccc1)C(=O)Nc1ccc([N+](=O)[O-])cc1 [N-Benzoyl Argininep-nitroanilide (BAPNA), N-Benzoyl-L- arginine p-nitroanilide hydrochloride]

Hydrolysis of chromogenic substrate by rISP1 (recombinant ISP1 [2]): no reaction | Michaelis Menton Constant (Km) (recombinant ISP1 [2]): Nil | Turnover No. (kcat) (recombinant ISP1 [2]): Nil
Molecule: C[C@H](N)C(=O)Nc1ccc([N+](=O)[O-])cc1 [Alanine p-nitroanilide]

Molecule: CC(=O)N[C@@H](CC(C)C)C(=O)N[C@@H](CC(C)C)C(=O)N[C@H](C=O)CCCNC(=N)N [Leupeptin]
Effect on enzyme activity of rISP1 (recombinant ISP1 [1]): no noticeable effect | Ki (Apparent Ki) (recombinant ISP1 [1]; substrate BAPNA (2 mM)): No inhibition

Molecule: CC(=O)O.Cc1ccc(S(=O)(=O)NCC(=O)N2CCC[C@H]2C(=O)N[C@@H](CCCCN)C(=O)Nc2ccc([N+](=O)[O-])cc2)cc1 [N(p-tosyl)-glycine-proline-lysine p-nitroanilide acetate] (Tos-Gly-Pro-Lys-pNA)
Hydrolysis of chromogenic substrate by rISP1 (recombinant ISP1 [2]): no enzyme activity | Michaelis Menton Constant (Km) (recombinant ISP1 [2]): Nil | Turnover No. (kcat) (recombinant ISP1 [2]): Nil

Molecule: CC(C)[C@H](N)C(=O)N[C@@H](Cc1ccccc1)C(=O)N[C@@H](CCCCN)C(=O)Nc1ccc([N+](=O)[O-])cc1 [Valine-Phenylalanine-Lysine p-nitroanilide] (H-Val-Phe-Lys-pNA)
Hydrolysis of chromogenic substrate by rISP1 (recombinant ISP1 [2]): no enzyme activity | Michaelis Menton Constant (Km) (recombinant ISP1 [2]): Nil | Turnover No. (kcat) (recombinant ISP1 [2]): Nil

Molecule: CC[C@H](C)[C@H](NC(=O)c1ccccc1)C(=O)N[C@@H](Cc1ccccc1)C(=O)N[C@@H](CCCCN)C(=O)Nc1ccc([N+](=O)[O-])cc1.Cl [N-Benzoyl-isoleucine-phenylalanine-lysine p-nitroanilide hydrochloride] (Bz-Ile-Phe-Lys-pNA)
Hydrolysis of chromogenic substrate by rISP1 (recombinant ISP1 [2]): hydrolyzed | Turnover No. (kcat) (recombinant ISP1 [2]): 3.9 s⁻¹ | Km (recombinant ISP1 [2]): 9600 µM

Ki (recombinant ISP1 [1]; substrate BAPNA (2 mM)): 2.4 µM
B1: Soybean Trypsin Inhibitor: general serine proteinase inhibitor (protein, UniProt P01070 25-205, looked up)
Trypsin inhibitor A: DFVLDNEGNPLENGGTYYILSDITAFGGIRAAPTGNERCPLTVVQSRNELDKGIGTIISSPYRIRFIAEGHPLSLKFDSFAVIMLCVGIPTEWSVVEDLPEGPAVKIGENKDAMDGWFRLERVSDDEFNNYKLVFCPQQAEDDKCGDIGISIDHDDGTRRLVVSKNKPLVVQFQKLDKESL
Effect on enzyme activity of rISP1 (recombinant ISP1 [1]): inhibited the enzyme activity | Effect on enzyme activity of rISP1 (recombinant ISP1 [1]; listed as trypsin soybean inhibitor): strong inhibitory activity

Ki (Apparent Ki) (recombinant ISP1 [1]; substrate BAPNA (2 mM)): No inhibition
B2: Recombinant human SLPI: recombinant human Secretory Leukocyte Protease Inhibitor (protein, UniProt P03973 26-132, looked up)
Antileukoproteinase: SGKSFKAGVCPPKKSAQCLRYKKPECQSDWQCPGKKRCCPDTCGIKCLDPVDTPNPTRRKPGKCPVTYGQCLMLNPPNFCEMDGQCKRDLKCCMGMCGKSCVSPVKA
Effect on enzyme activity of rISP1 (recombinant ISP1 [1]): no noticeable effect
